Data: patent US20110287948A1, “MEASUREMENT OF MATERIAL PROPERTIES AND RELATED METHODS AND COMPOSITIONS BASED ON CYTOADHERENCE” (Massachusetts Institute of Technology, priority 2010, published 2011)
“Also recorded” adds a separate entry of the source.

What was measured:
[1] = tested on: P. falciparum-infected RBCs (iRBCs) and co-cultured uninfected RBCs (uRBCs); experiment: Microfluidic deformability cytometer: RBC mobility after artesunate drug treatment; type: cell-based, human; details: for separation resolution between iRBCs and uRBCs after drug treatment: after artesunate treatment vs untreated
From the text: The device used in this example comprises a series of equally spaced triangular pillar arrays with pore sizes ranging from 2.5 to 4 um (FIG. 55A illustrates the case of 3 um pore size). Compared to the diameter of an average RBC (˜7.5 um), the smaller pore sizes are designed to impose similar mechanical constraints on the cells as if they are passing through blood capillaries and splenic meshwork. Driven by constant pressure gradient in the sub-Pascal-per-micrometer range, RBCs are able to deform substantially at each constriction and traverse along the channel. The dynamic deformability of RBCs is then characterized by their mobility: the ability to deform repeatedly in order to pass through multiple constrictions in series.
FIG. 55A depicts an experimental schematic of the microfluidic system. A heating chamber (Olympus) was mounted to the inverted microscope stage. Four heaters for the inner water bath, microscope stage, chamber top, and lens were designed to accurately control the ambient temperature inside the chamber. The PDMS-glass bonded device consists of the inlet and outlet reservoirs and main channels with triangular pillar arrays. It was placed inside the heating chamber with only the inlet reservoir connecting to an external syringe via a 20 cm-tubing. The reservoirs were 500×500 μm^2 squares with 20 μm-interspacing cylindrical pillar arrays; these pillar arrays could pre-filter white blood cells from whole blood, allowing only RBCs to pass through the main channels. Each of the parallel channels was 10 pillars wide and 200 pillars long. Along the flow direction, the inter-pillar spacing was 10 μm. This spacing allows deformed cells to recover and ready for subsequent deformations. Perpendicular to the flow direction, the pore size varied from 2.5 to 4 μm for different channels. Cells experience different levels of deformation when passing through these pores.
FIG. 55B presents microscopic screenshots illustrating both iRBCs and co-cultured uRBCs moving in the microchannel at different temperature conditions. The uninfected cells appear as dark shadows indicated by blue arrows, and the infected cells with thiazole orange (TO) staining appear as bright dots indicated by white arrows. The mobility of individual cells can then be derived by recording the time period for each cell passing through 10 constrictions in series (i.e. equivalent to 200 μm distance travelled). In this example, cell mobility is used to characterize the dynamic deformability of individual RBCs.
The deformability of both iRBCs and uRBCs were measured at 2, 4 and 6 hours after artesunate drug treatment (FIG. 60). A synchronized culture of rings with ˜15% parasitemia was resuspended at 0.1% hematocrit in malaria culture medium containing 0.01, 0.05 or 0.1 μg/ml of artesunate.
Layout program CleWin3.0 was used to design the microfluidic device, which consists of a 500×500 μm^2 inlet reservoir, a 500×500 μm^2 outlet reservoir, and parallel capillary channels with triangular pillar arrays (FIG. 55A). Three different pore-size of 2.5, 3.0 and 4.0 μm were designed for the capillary channels to test optimum deformation condition for the experiment. A silicon mold of the device was made using standard silicon processing techniques. The photolithography step was done using a 5× reduction step-and-repeat projection stepper (Nikon NSR2005i9, Nikon Prevision) and reactive-ion etching (RIE) techniques were used to give the mold a final depth of 4.2 μm. Final device was then casted from the silicon mold using polydimethylsiloxane (PDMS) and was sealed by a glass slide using oxygen plasma.
P. falciparum 3D7A parasites (from Malaria Research and Reference Reagent Source, American Type Culture Collection) were cultured in leukocyte-free human RBCs (Research Blood Components, Brighton Mass.) in RPMI 1640 complete medium as described (Trager and Jensen J. parasitol. 2005). […]

RBCs = experiment: Deformability cytometer: velocity of glutaraldehyde-treated RBCs through constrictions; type: cell-based, human
From the text: The device design includes periodically spaced, triangle-shaped pillars and the gaps between these pillars result in well-controlled constrictions for RBCs to pass. The height of the device was set to 4.2 μm. RBCs were forced to assume a flat orientation before entering each constriction. This height, in addition to filters at the reservoirs, prevented white blood cells from entering the device, and permitted diluted whole blood to be used directly.
A mold of the device was made on a silicon wafer using photolithography and reactive-ion etching techniques. A 5× reduction step-and-repeat projection stepper (Nikon NSR2005i9, Nikon Precision) was used for patterning. The spacing between pillars was 3 μm, and the depth of the device was 4.2 μm. The device was made using standard PDMS casting protocols and bonded to a glass slide.
In experiments involving blood, 1 μl of whole blood (−50% hematocrit) was diluted in 100 μl of the PBS-pluronic-BSA solution for all of the experiments. In experiments involving parasites that express GFP, no further treatment was performed. In experiments involving healthy RBCs, 1 μl of whole blood (Research Blood Components, Brighton, Mass.), 1 μl of 50 μg/ml of Cell Tracker Orange (Invitrogen, Carlsbad, Calif.), and 98 μl of PBS were mixed with the indicated concentration of glutaraldehyde and allowed to sit for 30 minutes. The sample was then washed 3 times with the PBS-Pluronic-BSA solution. In experiments involving reticulocytes, 1 μl of whole blood, 89 μl of the PBS-Pluronic-BSA solution, and 10 μl of 1×10^−6M thiazole orange were mixed and allowed to sit for 20 minutes before starting experiments. Videos were obtained in which reticulocytes appear as uniformly fluorescent cells under the GFP filter set, while mature RBCs appear as shadows.
The PBS-Pluronic-BSA solution was pumped through the device for 30 minutes to coat the device walls with Pluronic and BSA. The RBC-PBS-Pluronic-BSA suspension was then injected into the device. Differences in pressure between the two reservoirs were generated hydrostatically by a difference in water column height. […]

Row | SMILES | mobility decrease at earlier time points ([1]; 2 and 4 hours after artesunate treatment) | mobility decrease ([1]; 6 hours after artesunate treatment, 0.01, 0.05 or 0.1 μg/ml, iRBCs and uRBCs) | dose dependence of mobility changes ([1]; after 4 hour drug treatment, dosage range 0.01 to 0.1 μg/ml) | separation resolution between iRBCs and uRBCs after drug treatment [1] | separation resolution between iRBCs and uRBCs after drug treatment ([1]; listed as Artesunate) | effect on RBC deformability (stiffening) ([1]; iRBCs and uRBCs after artesunate treatment) | passage of RBCs into the channel (RBCs; glutaraldehyde concentrations greater than 0.003%) | RBCs that passed through the channels (RBCs; glutaraldehyde less than 0.002%, treatment for 30 minutes) | RBC stiffness / velocity with increasing concentration (RBCs; increasing glutaraldehyde concentration, 30 minutes, approx. 0.61 Pa/μm)
1 | C[C@H]1[C@H](OC(=O)CCC(=O)O)O[C@@H]2O[C@@]3(C)CC[C@H]4[C@H](C)CC[C@@H]1[C@@]24OO3 [artesunate] | smaller and less pronounced mobility decrease | 30%-50 | no statistically significant dose dependence | almost doubled | doubled | stiffening effect on both iRBCs and uRBCs; also recorded: the drop in iRBC deformability is more precipitous than in uRBC | – | – | –
2 | O=CCCCC=O [glutaraldehyde] | – | – | – | – | – | – | most RBCs were held up at the entrance to the channel, unable to deform | more than 95% | progressively stiffer with decreasing velocity
